Non-standard residues stand in square brackets, D forms with d. Residues, ends and D or L forms follow the SMILES beside them. *: point of attachment. 1Nal = N[C@@H](Cc1cccc2ccccc12)C(=O)O; Palmitoyl = CCCCCCCCCCCCCCCC(=O)*; Cha = N[C@@H](CC1CCCCC1)C(=O)O; Decanoyl = CCCCCCCCCC(=O)*; Octanoyl = CCCCCCCC(=O)*; Dap = NC[C@H](N)C(=O)O; Sar = CNCC(=O)O
Columns and labels:
human GHS-R1a receptor = target: T1, human GHS-R1a receptor (Homo sapiens, UniProt Q92847); experiment: Competitive binding studies (displacement of 125I-ghrelin); conditions: for % of ghrelin binding: relative to ghrelin = 100
T1 construct: purchased Multispan, Hayward, Calif., USA; host or cells: HEK293T cells, isolated plasma membranes
Description: Isolated plasma membranes from the HEK293T cells with transfected human GHS-R1a receptor (Multispan, Hayward, Calif., USA) were used. […] Experiments were carried out in duplicates at least three times. Competitive binding curves were plotted using GraphPad Prism Software (San Diego, Calif., USA) while comparing the best fit for single binding sites models.

fed C57BL/6 male mice = experiment: Effect of SC administered ghrelin analogs on food intake; type: in vivo; conditions: for maximal effect at 5 mg/kg on food intake: SC 5 mg/kg, evaluated 480 min after administration
Description: All of the experiments followed the ethical guidelines for animal experiments and Czech Republic law 246/1992 and were approved by the committee for experiments with laboratory animals of the Academy of Sciences of the Czech Republic. Male C57BL/6 mice (Charles River, Germany) were housed at a temperature 22±2° C. under a daily cycle of 12/12 h light/dark (light from 6:00) with free access to water and a standard chow diet St-1 which contained […] of calories from protein, fat and carbohydrate, respectively, and its energy content was 3.4 kcal/g (Mlýn Kocanda, Praha, Czech Republic). Mice were placed into separate cages for one week before experiment, they had free access to water and food pellets. Closely before the experiment, the food pellets were removed from the cages. […] 15 min after the injection, mice were given preweighed food pellets. Food intake was monitored for 8-10 hours at 30-min intervals. Mice had free access to water during the experiment. Experiments were performed at least twice for each tested compound, each experimental group had at least 5 mice.
Data from food intake experiments were analyzed by one-way ANOVA followed by Dunnett's post-hoc test using GraphPad Prism Software (San Diego, Calif., USA), P<0.05 was considered statistically significant. ED50 values were calculated using GraphPad Prism Software as the dose of the tested compound required to elicit half-maximal effect at 250 min after administration of the corresponding compound.
Food intake was monitored for […] after administration of the compounds. ED50 values were determined 250 min after administration. Maximal effect on food intake was evaluated […] after administration of the compounds at a dose of 5 mg/kg of body weight. NT—not tested.

T1 sequence (Q92847 whole entry): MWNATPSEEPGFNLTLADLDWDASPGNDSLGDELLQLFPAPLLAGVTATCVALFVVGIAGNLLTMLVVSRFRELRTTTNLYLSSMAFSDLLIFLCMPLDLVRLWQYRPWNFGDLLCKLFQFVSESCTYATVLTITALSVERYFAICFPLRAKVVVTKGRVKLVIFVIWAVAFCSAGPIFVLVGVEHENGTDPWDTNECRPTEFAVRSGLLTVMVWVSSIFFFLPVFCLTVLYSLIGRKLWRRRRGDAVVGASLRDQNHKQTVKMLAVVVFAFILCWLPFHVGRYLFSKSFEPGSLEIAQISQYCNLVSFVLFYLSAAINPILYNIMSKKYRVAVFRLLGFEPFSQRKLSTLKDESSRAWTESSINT

| SMILES | affinity for GHS-R1a compared with ghrelin (human GHS-R1a receptor; in words) | % of ghrelin binding (human GHS-R1a receptor) | maximal effect at 5 mg/kg on food intake (fed C57BL/6 male mice) | ED50 (250 min after injection), effect on food intake (fed C57BL/6 male mice; SC, fed mice, 250 min after injection) |
| --- | --- | --- | --- | --- |
| CCCCCCCCCC(=O)NC[C@H](NC(=O)[C@H](CO)NC(=O)CNC)C(=O)N[C@@H](CC1CCCCC1)C(=O)N[C@@H](CC(C)C)C(=O)N[C@@H](CO)C(=O)N1CCC[C@H]1C(=O)N[C@@H](CCC(=O)O)C(=O)N[C@@H](Cc1c[nH]cn1)C(=O)N[C@@H](CCC(N)=O)C(=O)N[C@@H](CCCCN)C(=O)N[C@@H](C)C(=O)N[C@@H](CCC(N)=O)C(=O)N[C@@H](CCC(N)=O)C(=O)N[C@@H](CCCNC(=N)N)C(=O)N[C@@H](CCCCN)C(=O)N[C@@H](CCC(=O)O)C(=O)N[C@@H](CO)C(=O)N[C@@H](CCCCN)C(=O)N[C@@H](CCCCN)C(=O)N1CCC[C@H]1C(=O)N1CCC[C@H]1C(=O)N[C@@H](C)C(=O)N[C@@H](CCCCN)C(=O)N[C@@H](CC(C)C)C(=O)N[C@@H](CCC(N)=O)C(=O)N1CCC[C@H]1C(=O)N[C@@H](CCCNC(=N)N)C(=O)O [Analog 5] (H-[Sar]S[Dap](Decanoyl)[Cha]LSPEHQKAQQRKESKKPPAKLQPR-OH; N-terminus and C-terminus assumed) | higher affinities for GHS-R1a than ghrelin | 110% | 204.5 % of Dpr^3ghr | 1.02 mg/kg |
| CCCCCCCCCCCCCCCC(=O)NCCCC[C@H](NC(=O)[C@H](C)NC(=O)[C@@H]1CCCN1C(=O)[C@@H]1CCCN1C(=O)[C@H](CCCCN)NC(=O)[C@H](CCCCN)NC(=O)[C@H](CO)NC(=O)[C@H](CCC(=O)O)NC(=O)[C@H](CCCCN)NC(=O)[C@H](CCCNC(=N)N)NC(=O)[C@H](CCC(N)=O)NC(=O)[C@H](CCC(N)=O)NC(=O)[C@H](C)NC(=O)[C@H](CCCCN)NC(=O)[C@H](CCC(N)=O)NC(=O)[C@H](Cc1c[nH]cn1)NC(=O)[C@H](CCC(=O)O)NC(=O)[C@@H]1CCCN1C(=O)[C@H](CO)NC(=O)[C@H](CC(C)C)NC(=O)[C@H](Cc1cccc2ccccc12)NC(=O)[C@H](CNC(=O)CCCCCCC)NC(=O)[C@H](CO)NC(=O)CNC)C(=O)N[C@@H](CC(C)C)C(=O)N[C@@H](CCC(N)=O)C(=O)N1CCC[C@H]1C(=O)N[C@@H](CCCNC(=N)N)C(=O)O [Analog 9] (H-[Sar]S[Dap](Octanoyl)[1Nal]LSPEHQKAQQRKESKKPPAK(Palmitoyl)LQPR-OH; N-terminus and C-terminus assumed) |  | 5% | 171.1 % of Dpr^3ghr |  |
| CCCCCCCC(=O)NC[C@H](NC(=O)[C@H](CO)NC(=O)CNC)C(=O)N[C@@H](Cc1ccc(Cl)c(Cl)c1)C(=O)N[C@@H](CC(C)C)C(=O)N[C@@H](CO)C(=O)N1CCC[C@H]1C(=O)N[C@@H](CCC(=O)O)C(=O)N[C@@H](Cc1c[nH]cn1)C(=O)N[C@@H](CCC(N)=O)C(=O)N[C@@H](CCCCN)C(=O)N[C@@H](C)C(=O)N[C@@H](CCC(N)=O)C(=O)N[C@@H](CCC(N)=O)C(=O)N[C@@H](CCCNC(=N)N)C(=O)N[C@@H](CCCCN)C(=O)N[C@@H](CCC(=O)O)C(=O)N[C@@H](CO)C(=O)N[C@@H](CCCCN)C(=O)N[C@@H](CCCCN)C(=O)N1CCC[C@H]1C(=O)N1CCC[C@H]1C(=O)N[C@@H](C)C(=O)N[C@@H](CCCCN)C(=O)N[C@@H](CC(C)C)C(=O)N[C@@H](CCC(N)=O)C(=O)N1CCC[C@H]1C(=O)N[C@@H](CCCNC(=N)N)C(=O)O [Analog 13] |  | 47% | 92.9 % of Dpr^3ghr |  |

Reference: patent publication US20170044230A1 (USTAV ORGANICKE CHEMIE A BIOCHEMIE AV CR, V.V.I., priority 2014, published 2017)
